The RepoRT retention time repository (doi:10.1016/j.foodchem.2021.129757)

Key:
Conditions in all cases: stereoisomer not certain
[1] = RP, Waters ACQUITY UPLC BEH Shield RP18, 150 × 2.1 mm, 1.7 µm, 40 °C, 0.4 mL/min, estimated dead time 0.83 min; A: water + 0.1% formic acid, pH 3; B: acetonitrile + 0.1% formic acid, pH 3; gradient (min/%B) 0/0 30/50 31/100 37/100 37.1/0
[2] = RP, 100 × 0.5 mm, 2.7 µm, 45 °C, 0.015 mL/min, estimated dead time 0.83 min; A: water + 0.9% formic acid; B: acetonitrile + 0.9% formic acid; gradient (min/%B) 0/1 0.5/1 4/95 4.5/1 5/1
[3] = RP, Waters ACQUITY UPLC BEH Shield RP18, 100 × 2.1 mm, 1.7 µm, 30 °C, 0.6 mL/min, estimated dead time 0.37 min; A: water + 0.1% formic acid, pH 3; B: acetonitrile + 0.1% formic acid, pH 3; gradient (min/%B) 0/0 2/0 7/10 22/95 22.1/0 26/0
[4] = RP, Phenomenex Synergi Hydro-RP, 250 × 2 mm, 4 µm, 25 °C, 0.2 mL/min, estimated dead time 2.5 min; A: water + 0.1% formic acid, pH 3; B: acetonitrile + 0.1% formic acid, pH 3; gradient (min/%B) 0/0.5 7/0.5 12/12.5 25/16.3 47/35 48/65 50/65 50.1/0.5
[5] = RP, Phenomenex Synergi Hydro-RP, 150 × 2 mm, 4 µm, 30 °C, 0.5 mL/min, estimated dead time 0.6 min; A: water + 0.1% formic acid, pH 3; B: acetonitrile + 0.1% formic acid, pH 3; gradient (min/%B) 0/5 1/5 35/45 40/100 45/100
[6] = RP, 50 × 0.5 mm, 2.7 µm, 35 °C, 0.01 mL/min, estimated dead time 0.62 min; A: water + 0.1% formic acid, pH 3; B: acetonitrile + 0.1% formic acid, pH 3; gradient (min/%B) 0/5 12/95 14/95 16/5
[7] = RP, Merck LiChrospher RP-18, 250 × 4 mm, 5 µm, 35 °C, 0.3 mL/min, estimated dead time 6.7 min; A: water + 0.5% formic acid; B: acetonitrile + 0.5% formic acid; gradient (min/%B) 0/5 10/5 30/15 45/20 65/20 95/54 110/63 115/5 135/5
[8] = RP, Waters ACQUITY UPLC BEH C18, 100 × 2.1 mm, 1.7 µm, 65 °C, 0.4 mL/min, estimated dead time 0.55 min; A: water + 0.1% formic acid, pH 3; B: 80% acetonitrile + 20% acetone + 0.1% formic acid, pH 3; gradient (min/%B) 0/0 5/100 5.5/0 6/0
[9] = Other, Phenomenex Kinetex PFP, 100 × 4.6 mm, 5 µm, 45 °C, 0.6 mL/min, estimated dead time 1.8 min; A: water + 0.1% trifluoroacetic acid, pH 2; B: methanol; gradient (min/%B) 0/40 20/72 21/40
[10] = RP, Phenomenex Luna Omega Polar C18, 100 × 2.1 mm, 1.6 µm, 40 °C, 0.5 mL/min, estimated dead time 0.44 min; A: water + 0.5% formic acid; B: acetonitrile + 0.5% formic acid; gradient (min/%B) 0/5 3/50 3.1/100 5/100 5.1/5 7/5
[11] = RP, 150 × 2.1 mm, 2.6 µm, 40 °C, 0.35 mL/min, estimated dead time 0.94 min; A: water + 0.1% formic acid, pH 3; B: acetonitrile + 0.1% formic acid, pH 3; gradient (min/%B) 0/0 1/5 7/45 8.5/80 10.5/80 11/5 12/5
[12] = RP, Phenomenex Luna C18, 150 × 4.6 mm, 3 µm, 25 °C, 0.5 mL/min, estimated dead time 3.2 min; A: water + 0.1% formic acid, pH 3; B: acetonitrile + 0.1% formic acid, pH 3; gradient (min/%B) 0/0 30/30 35/40 50/80 52/80 60/0 65/0
[13] = Other, Phenomenex Kinetex PFP, 100 × 4.6 mm, 2.6 µm, 35 °C, 1.5 mL/min, estimated dead time 0.71 min; A: water + 0.1% trifluoroacetic acid, pH 2; B: acetonitrile + 0.1% trifluoroacetic acid, pH 2; gradient (min/%B) 0/1 7/7.5 14/7.6 17/10 18.5/12 20/12.5 24/30 25/90 25.1/1 32/1
[14] = RP, Waters ACQUITY UPLC HSS T3, 100 × 2.1 mm, 1.8 µm, 30 °C, 0.4 mL/min, estimated dead time 0.55 min; A: water + 0.1% formic acid, pH 3; B: acetonitrile + 0.1% formic acid, pH 3; gradient (min/%B) 0/0 2/0 15/100 22/100 22.1/0 26/0
[15] = RP, 150 × 2.1 mm, 2.6 µm, 40 °C, 0.35 mL/min, estimated dead time 0.94 min; A: water + 0.1% formic acid, pH 3; B: acetonitrile + 0.1% formic acid, pH 3; gradient (min/%B) 0/0 1/0 12.5/100 14/100 14.2/0 15/0
[16] = RP, Agilent InfinityLab Poroshell 120 EC-C18, 100 × 3 mm, 2.7 µm, 25 °C, 0.4 mL/min, estimated dead time 1.1 min; A: water + 0.1% formic acid, pH 3; B: acetonitrile + 0.1% formic acid, pH 3; gradient (min/%B) 0/5 10/25 20/40 24/90 25/90 26/5 30/5
[17] = RP, Agilent ZORBAX Eclipse XDB-C18, 100 × 2.1 mm, 1.8 µm, 50 °C, 0.4 mL/min, estimated dead time 0.55 min; A: water + 0.1% formic acid, pH 3; B: methanol + 0.1% formic acid, pH 3; gradient (min/%B) 0/2 10/100 14.5/100 14.51/2 16.5/2
[18] = RP, Waters Atlantis T3, 100 × 2.1 mm, 3 µm, 40 °C, 0.3 mL/min, estimated dead time 0.73 min; A: water + 0.1% trifluoroacetic acid, pH 2; B: acetonitrile + 0.1% trifluoroacetic acid, pH 2; gradient (min/%B) 0/10 1/10 6/40 7/50 8/50 14/70 16/80 20/10 25/10
[19] = RP, Phenomenex Luna Omega Polar C18, 100 × 2.1 mm, 1.6 µm, 40 °C, 0.5 mL/min, estimated dead time 0.44 min; A: water + 0.1% formic acid + 10 mM ammonium formate; B: acetonitrile; gradient (min/%B) 0/5 8/20 10/100 12/100 12.1/5 14/5
[20] = RP, Agilent ZORBAX RRHD Eclipse Plus C18, 50 × 2.1 mm, 1.8 µm, 30 °C, 0.4 mL/min, estimated dead time 0.28 min; A: water + 0.1% formic acid, pH 3; B: acetonitrile + 0.1% formic acid, pH 3; gradient (min/%B) 0/1 5/10 8/25 9.1/99 10/99 12/99
[21] = RP, Merck Supelco SUPELCOSIL LC-C18, 250 × 4.6 mm, 5 µm, 40 °C, 1 mL/min, estimated dead time 2.6 min; A: water + 0.1% trifluoroacetic acid, pH 2; B: acetonitrile + 0.1% trifluoroacetic acid, pH 2; gradient (min/%B) 0/5 45/35 47/75 49/35 50/5
[22] = RP, Agilent ZORBAX RRHD Eclipse Plus C18, 50 × 2.1 mm, 1.8 µm, 30 °C, 0.4 mL/min, estimated dead time 0.28 min; A: water + 0.1% formic acid, pH 3; B: acetonitrile + 0.1% formic acid, pH 3; gradient (min/%B) 0/1 5/10 8/25 9.1/99 10/99 12/1
[23] = RP, Waters ACQUITY UPLC HSS T3, 100 × 2.1 mm, 50 °C; A: water + 0.1% formic acid, pH 3; B: 30% methanol + 70% acetonitrile + 0.1% formic acid, pH 3; gradient (min/%B) 0/5 1/8 2/15 3/40 4/70 4.5/100 5/100 6.4/100 6.6/5 6.8/5 7/5

| SMILES | LC retention time [1] [min] | LC retention time [2] [min] | LC retention time [3] [min] | LC retention time [4] [min] | LC retention time [6] [min] | LC retention time [7] [min] | LC retention time [8] [min] | LC retention time [9] [min] | LC retention time [10] [min] | LC retention time [12] [min] | LC retention time [13] [min] | LC retention time [14] [min] | LC retention time [16] [min] | LC retention time [17] [min] | LC retention time [18] [min] | LC retention time [19] [min] | LC retention time [20] [min] | LC retention time [21] [min] | LC retention time [22] [min] | other results |
| --- | --- | --- | --- | --- | --- | --- | --- | --- | --- | --- | --- | --- | --- | --- | --- | --- | --- | --- | --- | --- |
| COc1cc(/C=C/C(=O)O)ccc1O [Ferulic acid] | 11.2 | 2.44 | 12.5 | 32.7 | 4.13 | 61.3 | 2.17 | 7.59 | 2.51 | 23.8 | 20.7 | 9.48 | 9.17 | 4.64 | 7.28 | 6.79 | 4.67 | 21.7 | 7.16 | LC retention time [5]: 14.4 min; LC retention time [11]: 5.86 min; LC retention time [15]: 5.86 min |
| O=C(O)C=Cc1ccc(O)cc1 [p-Coumaric acid] | 10.8 | 2.3 | 12.3 | 30.1 | 3.84 | 56.2 | 1.99 | 7.01 | 2.39 | 21.7 | 17.6 | 9.24 | 8.4 | 4.32 | 6.73 | 5.83 | 6.96 | 19 | 6.97 | LC retention time [23]: 3.45 min |
